For data set [1] the following is noted: cited from earlier work.
Data set [2] is classed as physicochemical. The source says:
Traditionally, the beverage industry makes certain carbonated beverages by first making concentrated syrup and then diluting the syrup with water at the time and place of making the beverage. The dilution ratio in such beverages is often 1:5; meaning one part syrup is mixed with five parts water. The beverage often is carbonated at the time of being bottled or otherwise packaged. For any ingredient to be incorporated into such a 1:5 syrup, the solubility of the ingredient in the syrup must be at least six times higher than its desired concentration in the finished beverage. […] It would be advantageous, therefore, to develop improved methods of incorporating rebaudioside D into an aqueous solution.

For data set [3] the following is noted: cited from earlier work; for Sweetness potency: commonly accepted potency figures, weight basis.

We go through ten compounds from US20200315232A1, “Method to Improve Dispersibility of a Material Having Low Solubility in Water” (PepsiCo, Inc., priority 2012, published 2020).

Residues, ends and D or L forms follow the SMILES beside them.

Consider `C=C1C[C@@]23CC[C@H]4[C@@](C)(CCC[C@@]4(C)C(=O)O[C@@H]4O[C@H](CO)[C@@H](O)[C@H](O)[C@H]4O[C@@H]4O[C@H](CO)[C@@H](O)[C@H](O)[C@H]4O)[C@@H]2CC[C@]1(O[C@@H]1O[C@H](CO)[C@@H](O)[C@H](O[C@@H]2O[C@H](CO)[C@@H](O)[C@H](O)[C@H]2O)[C@H]1O[C@@H]1O[C@H](CO)[C@@H](O)[C@H](O)[C@H]1O)C3` [Rebaudioside D, rebaudioside D], for which the “Water solubility (in words)” value in data set [1] was “low”. In addition, the “Stable solubility in aqueous solution” value in data set [2] was “no more than 450 ppm”. In addition, the Sweetness potency in data set [3] is given as 180-200 times as sweet as sugar.

For the compound `C[C@H](CC[C@@H](O[C@@H]1O[C@H](CO[C@@H]2O[C@H](CO)[C@@H](O)[C@H](O)[C@H]2O)[C@@H](O)[C@H](O)[C@H]1O[C@@H]1O[C@H](CO)[C@@H](O)[C@H](O)[C@H]1O)C(C)(C)O)[C@H]1CC[C@@]2(C)[C@@H]3CC=C4[C@@H](CC[C@H](O[C@@H]5O[C@H](CO[C@@H]6O[C@H](CO)[C@@H](O)[C@H](O)[C@H]6O)[C@@H](O)[C@H](O)[C@H]5O)C4(C)C)[C@]3(C)[C@H](O)C[C@]12C` [Mogroside V], in data set [3], the Sweetness potency is on record as 100-300 times as sweet as sugar.

`COC(=O)[C@H](Cc1ccccc1)NC(=O)[C@@H](N)CC(=O)O` [Aspertame] (H-Asp-Phe-OMe): the Sweetness potency in data set [3] was 200 times as sweet as sugar.

For the compound `C=C1C[C@@]23CC[C@H]4[C@@](C)(CCC[C@@]4(C)C(=O)O[C@@H]4O[C@H](CO)[C@@H](O)[C@H](O)[C@H]4O)[C@@H]2CC[C@]1(O[C@@H]1O[C@H](CO)[C@@H](O)[C@H](O[C@@H]2O[C@H](CO)[C@@H](O)[C@H](O)[C@H]2O)[C@H]1O[C@@H]1O[C@H](CO)[C@@H](O)[C@H](O)[C@H]1O)C3` [Rebaudioside A, rebaudioside A], the “Solubility in aqueous solution” value in data set [1] (room temperature) is on record as “at least 3000 ppm”. Also, the “Water solubility (in words)” value in data set [1] is “more soluble than stevioside”. The “Sweetness relative to sucrose” value in data set [3] (background statement) is “approximately 200 times sweeter than sucrose”. Moreover, the Sweetness potency in data set [3] is on record as 150-300 times as sweet as sugar.

For the compound `COC(=O)[C@H](Cc1ccccc1)NC(=O)[C@H](CC(=O)O)NCCC(C)(C)C` [Neotame], in data set [3], the Sweetness potency is 8,000 times as sweet as sugar.

As to `COc1ccc(CCC(=O)c2c(O)cc(O[C@@H]3O[C@H](CO)[C@@H](O)[C@H](O)[C@H]3O[C@@H]3O[C@@H](C)[C@H](O)[C@@H](O)[C@H]3O)cc2O)cc1O` [Neohesperidin dihydrochalcone], in data set [3], the Sweetness potency is on record as 300 times as sweet as sugar.

Take `O=C1NS(=O)(=O)c2ccccc21` [Saccharine]: the Sweetness potency in data set [3] was 300 times as sweet as sugar.

As to `OC[C@H]1O[C@H](O[C@]2(CCl)O[C@H](CCl)[C@@H](O)[C@@H]2O)[C@H](O)[C@@H](O)[C@H]1Cl` [Sucralose], the Sweetness potency in data set [3] is on record as 600 times as sweet as sugar.

As for `CC1=CC(=O)[N-]S(=O)(=O)O1.[K+]` [Acesulfame-K], the Sweetness potency in data set [3] is given as 200 times as sweet as sugar.

On to `C=C1C[C@@]23CC[C@H]4[C@@](C)(CCC[C@@]4(C)C(=O)O[C@@H]4O[C@H](CO)[C@@H](O)[C@H](O)[C@H]4O)[C@@H]2CC[C@]1(O[C@@H]1O[C@H](CO)[C@@H](O)[C@H](O)[C@H]1O[C@@H]1O[C@H](CO)[C@@H](O)[C@H](O)[C@H]1O)C3` [Stevioside, stevioside], for which the “Water solubility (in words)” value in data set [1] is reported as “only sparingly soluble in water”. The Sweetness potency in data set [3] is 100-250 times as sweet as sugar.
